Source: ChEMBL document CHEMBL1201862, “PubChem BioAssay data set” (2004)
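Results reflect a 48-hour exposure of cells in 96-well plates to compound at five concentrations. GI50: concentration for 50% inhibition of growth.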 Active and inactive are the calls of the source. Rule as the data show it: active = GI50 up to about 1.1 µM and inactive = higher.

Assays:
Test in all cases: NCI tumour cell line growth inhibition, 48 h
786-0 = tested on: 786-0
A498 = tested on: A498
A549 = tested on: A549
ACHN = tested on: ACHN
CAKI-1 = tested on: CAKI-1
CCRF-CEM = tested on: CCRF-CEM
COLO 205 = tested on: COLO 205
DLD-1 = tested on: DLD-1
DMS-114 = tested on: DMS-114
DMS-273 = tested on: DMS-273
EKVX = tested on: EKVX
HCC 2998 = tested on: HCC 2998
HCT-116 = tested on: HCT-116
HCT-15 = tested on: HCT-15
HL-60 = tested on: HL-60
HOP-18 = tested on: HOP-18
HOP-62 = tested on: HOP-62
HOP-92 = tested on: HOP-92
HT-29 = tested on: HT-29
IGROV-1 = tested on: IGROV-1
K562 = tested on: K562
KM-20L2 = tested on: KM-20L2
KM12 = tested on: KM12
LOX IMVI = tested on: LOX IMVI
LXFL 529 = tested on: LXFL 529
M14 = tested on: M14
M19-MEL = tested on: M19-MEL
MOLT-4 = tested on: MOLT-4
Malme-3M = tested on: Malme-3M
NCI-H226 = tested on: NCI-H226
NCI-H23 = tested on: NCI-H23
NCI-H460 = tested on: NCI-H460
NCI-H522 = tested on: NCI-H522
OVCAR-3 = tested on: OVCAR-3
OVCAR-4 = tested on: OVCAR-4
OVCAR-5 = tested on: OVCAR-5
OVCAR-8 = tested on: OVCAR-8
RPMI-8226 = tested on: RPMI-8226
RXF 393 = tested on: RXF 393
SF-268 = tested on: SF-268
SF-295 = tested on: SF-295
SF-539 = tested on: SF-539
SK-MEL-28 = tested on: SK-MEL-28
SK-MEL-2 = tested on: SK-MEL-2
SK-MEL-5 = tested on: SK-MEL-5
SK-OV-3 = tested on: SK-OV-3
SN12C = tested on: SN12C
SNB-19 = tested on: SNB-19
SNB-75 = tested on: SNB-75
SNB-78 = tested on: SNB-78
SR = tested on: SR
SW-620 = tested on: SW-620
TK-10 = tested on: TK-10
U-251 = tested on: U-251
UACC-257 = tested on: UACC-257
UACC-62 = tested on: UACC-62
UO-31 = tested on: UO-31
XF498 = tested on: XF498

With [O-][S+]1C(=c2ccc(=C3Sc4ccccc4S3)cc2)Sc2ccccc21 (stereo not drawn) the GI50 (786-0) was 17 µM (inactive), the GI50 (A498) was 15.8 µM (inactive) and the GI50 (A549) was 17.6 µM (inactive). The GI50 (ACHN) was 19.5 µM (inactive), the GI50 (CAKI-1) was > 52.7 µM (inactive) and the GI50 (CCRF-CEM) was > 94.4 µM (inactive). The GI50 (COLO 205) was > 100 µM (inactive), the GI50 (DLD-1) was 27.4 µM (inactive) and the GI50 (DMS-114) was 20.8 µM (inactive). The GI50 (DMS-273) was 18.9 µM (inactive), the GI50 (EKVX) was 20 µM (inactive) and the GI50 (HCC 2998) was 16 µM (inactive). For the same compound, the GI50 (HCT-116) was 25.1 µM (inactive), the GI50 (HCT-15) was 15.3 µM and the GI50 (HL-60) was > 100 µM (inactive). The GI50 (HOP-18) was > 100 µM (inactive), the GI50 (HOP-62) was 17.7 µM (inactive) and the GI50 (HOP-92) was > 67.3 µM (inactive). For the same compound, the GI50 (HT-29) was 22.6 µM (inactive), the GI50 (IGROV-1) was 38.5 µM (inactive) and the GI50 (K562) was > 66.7 µM (inactive). For the same compound, the GI50 (KM-20L2) was 17.3 µM (inactive), the GI50 (KM12) was 17.4 µM (inactive) and the GI50 (LOX IMVI) was 17.9 µM (inactive). The GI50 (LXFL 529) was 51.2 µM (inactive), the GI50 (M14) was 15.1 µM (inactive) and the GI50 (M19-MEL) was 19.7 µM (inactive). The GI50 (MOLT-4) was > 71.9 µM (inactive), the GI50 (Malme-3M) was > 100 µM (inactive) and the GI50 (NCI-H226) was 19.2 µM (inactive). For the same compound, the GI50 (NCI-H23) was 16.3 µM (inactive), the GI50 (NCI-H460) was 18.2 µM (inactive) and the GI50 (NCI-H522) was > 100 µM (inactive). For the same compound, the GI50 (OVCAR-3) was > 100 µM (inactive), the GI50 (OVCAR-4) was 46.8 µM (inactive) and the GI50 (OVCAR-5) was 18.3 µM (inactive). For the same compound, the GI50 (OVCAR-8) was 17.9 µM (inactive), the GI50 (RPMI-8226) was > 100 µM (inactive) and the GI50 (RXF 393) was 24.2 µM (inactive). The GI50 (SF-268) was 12.4 µM (inactive), the GI50 (SF-295) was 17.1 µM (inactive) and the GI50 (SF-539) was 15.6 µM (inactive). The GI50 (SK-MEL-28) was 3.03 µM (inactive), the GI50 (SK-MEL-2) was 21.3 µM (inactive) and the GI50 (SK-MEL-5) was 19.2 µM (inactive). The GI50 (SK-OV-3) was 21.8 µM (inactive), the GI50 (SN12C) was 15.6 µM (inactive) and the GI50 (SNB-19) was 17 µM (inactive). For the same compound, the GI50 (SNB-75) was 19.1 µM (inactive), the GI50 (SNB-78) was 53.3 µM (inactive) and the GI50 (SR) was 89.5 µM (inactive). For the same compound, the GI50 (SW-620) was > 100 µM (inactive), the GI50 (TK-10) was > 100 µM (inactive) and the GI50 (U-251) was 14.9 µM (inactive). The GI50 (UACC-257) was > 92.5 µM (inactive), the GI50 (UACC-62) was 18.1 µM (inactive) and the GI50 (UO-31) was 17.2 µM (inactive).
CCOC(=O)c1nn2c(nc1=O)sc1ccc3ccccc3c12 was tested, and the GI50 (786-0) was > 100 µM (inactive), the GI50 (A549) was > 100 µM (inactive) and the GI50 (ACHN) was > 100 µM (inactive). The GI50 (CAKI-1) was > 100 µM (inactive), the GI50 (CCRF-CEM) was 58.2 µM (inactive) and the GI50 (COLO 205) was > 100 µM (inactive). For the same compound, the GI50 (DLD-1) was > 100 µM (inactive), the GI50 (DMS-114) was > 100 µM (inactive) and the GI50 (DMS-273) was > 100 µM (inactive). For the same compound, the GI50 (EKVX) was > 100 µM (inactive), the GI50 (HCC 2998) was > 100 µM (inactive) and the GI50 (HCT-116) was > 100 µM (inactive). For the same compound, the GI50 (HCT-15) was over 100 µM, the GI50 (HL-60) was > 100 µM (inactive) and the GI50 (HOP-18) was > 100 µM (inactive). The GI50 (HOP-62) was > 100 µM (inactive), the GI50 (HOP-92) was > 100 µM (inactive) and the GI50 (HT-29) was > 100 µM (inactive). For the same compound, the GI50 (IGROV-1) was > 100 µM (inactive), the GI50 (K562) was > 100 µM (inactive) and the GI50 (KM-20L2) was > 100 µM (inactive). For the same compound, the GI50 (KM12) was > 100 µM (inactive), the GI50 (LOX IMVI) was > 100 µM (inactive) and the GI50 (LXFL 529) was > 100 µM (inactive). The GI50 (M14) was > 100 µM (inactive), the GI50 (M19-MEL) was > 100 µM (inactive) and the GI50 (MOLT-4) was > 100 µM (inactive). The GI50 (Malme-3M) was > 100 µM (inactive), the GI50 (NCI-H226) was > 100 µM (inactive) and the GI50 (NCI-H23) was > 100 µM (inactive). The GI50 (NCI-H460) was > 100 µM (inactive), the GI50 (OVCAR-3) was > 100 µM (inactive) and the GI50 (OVCAR-4) was > 100 µM (inactive). For the same compound, the GI50 (OVCAR-5) was > 100 µM (inactive), the GI50 (OVCAR-8) was > 100 µM (inactive) and the GI50 (RPMI-8226) was > 100 µM (inactive). For the same compound, the GI50 (RXF 393) was > 100 µM (inactive), the GI50 (SF-268) was > 100 µM (inactive) and the GI50 (SF-295) was > 100 µM (inactive). The GI50 (SF-539) was > 100 µM (inactive), the GI50 (SK-MEL-28) was > 100 µM (inactive) and the GI50 (SK-MEL-2) was > 100 µM (inactive). The GI50 (SK-MEL-5) was > 100 µM (inactive), the GI50 (SK-OV-3) was > 100 µM (inactive) and the GI50 (SN12C) was > 100 µM (inactive). The GI50 (SNB-19) was > 100 µM (inactive), the GI50 (SNB-75) was > 100 µM (inactive) and the GI50 (SNB-78) was > 100 µM (inactive). The GI50 (SR) was > 100 µM (inactive), the GI50 (SW-620) was > 100 µM (inactive) and the GI50 (TK-10) was > 100 µM (inactive). The GI50 (U-251) was > 100 µM (inactive), the GI50 (UACC-257) was > 100 µM (inactive) and the GI50 (UACC-62) was > 100 µM (inactive). For the same compound, the GI50 (UO-31) was > 100 µM (inactive).
In the case of N#C/N=C1\NC(Cc2ccccc2)C(=O)N1CCc1c[nH]c2ccccc12 (stereo not drawn), the GI50 (786-0) is reported as 18.5 µM (inactive), the GI50 (A549) is reported as 27 µM (inactive) and the GI50 (CCRF-CEM) is reported as 25.5 µM (inactive). For the same compound, the GI50 (COLO 205) was 19.7 µM (inactive), the GI50 (DLD-1) was 33.9 µM (inactive) and the GI50 (DMS-114) was 29.3 µM (inactive). The GI50 (DMS-273) was 27.7 µM (inactive), the GI50 (EKVX) was 22.4 µM (inactive) and the GI50 (HCC 2998) was 19.8 µM (inactive). The GI50 (HCT-116) was 20.6 µM (inactive), the GI50 (HCT-15) was 29.4 µM and the GI50 (HL-60) was 22.1 µM (inactive). For the same compound, the GI50 (HOP-62) was 28.1 µM (inactive), the GI50 (HT-29) was 34.9 µM (inactive) and the GI50 (IGROV-1) was 31.8 µM (inactive). For the same compound, the GI50 (K562) was 23.9 µM (inactive), the GI50 (KM12) was 29.4 µM (inactive) and the GI50 (LOX IMVI) was 35.2 µM (inactive). The GI50 (LXFL 529) was 30.1 µM (inactive), the GI50 (M14) was 35.1 µM (inactive) and the GI50 (M19-MEL) was 30.1 µM (inactive). For the same compound, the GI50 (MOLT-4) was 18.4 µM (inactive), the GI50 (NCI-H226) was 37.1 µM (inactive) and the GI50 (NCI-H23) was 35.7 µM (inactive). The GI50 (OVCAR-3) was 33.6 µM (inactive), the GI50 (OVCAR-4) was 25.5 µM (inactive) and the GI50 (OVCAR-8) was 37.4 µM (inactive). The GI50 (RPMI-8226) was 25.6 µM (inactive), the GI50 (RXF 393) was > 10 µM (inactive) and the GI50 (SF-268) was 15.7 µM (inactive). For the same compound, the GI50 (SF-295) was 32.4 µM (inactive), the GI50 (SF-539) was 29.6 µM (inactive) and the GI50 (SK-MEL-28) was 23.6 µM (inactive). For the same compound, the GI50 (SK-MEL-5) was 17.8 µM (inactive), the GI50 (SK-OV-3) was 26.3 µM (inactive) and the GI50 (SN12C) was 29.9 µM (inactive). For the same compound, the GI50 (SNB-19) was 37 µM (inactive), the GI50 (SNB-75) was 8.87 µM (inactive) and the GI50 (SNB-78) was 21.8 µM (inactive). For the same compound, the GI50 (SR) was 33.7 µM (inactive), the GI50 (SW-620) was 34.9 µM (inactive) and the GI50 (TK-10) was 26.6 µM (inactive). For the same compound, the GI50 (UACC-257) was 43.6 µM (inactive), the GI50 (UACC-62) was 23.2 µM (inactive) and the GI50 (UO-31) was 24 µM (inactive). The GI50 (XF498) was 27.4 µM (inactive).
